Results as given in patent publication US20260347373A1, “HETEROCYCLIC COMPOUNDS, COMPOSITIONS THEREOF, AND METHODS OF TREATMENT THEREWITH” (BeOne Medicines I GmbH, priority 2023, published 2026).
Like-named read-outs stand apart in the source and are kept apart here.

Experiments:
WT KRAS = WT KRAS (Homo sapiens, UniProt P01116); test: KRAS WT Probe Displacement Assay (TR-FRET, GDP-loaded); assay type: binding
Text: (§1) The synthetic routes of probe 1 and 2, which have been disclosed in PCT/CN2022/070676, are hereby incorporated herein.

KRAS G12D = KRAS G12D (Homo sapiens, UniProt P01116, G12D); test: KRAS G12D Probe Displacement Assay (TR-FRET, GDP-loaded); assay type: binding
Sequence of KRAS G12D (P01116 1-188 isoform P01116-2 G12D): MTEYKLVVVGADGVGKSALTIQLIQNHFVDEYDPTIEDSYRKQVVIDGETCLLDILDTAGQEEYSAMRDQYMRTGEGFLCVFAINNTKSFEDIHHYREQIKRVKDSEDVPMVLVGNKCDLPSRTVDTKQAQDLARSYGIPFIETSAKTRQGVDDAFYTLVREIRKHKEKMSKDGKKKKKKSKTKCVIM
Text: as §1

[1] = KRAS WT, read-out: KRAS^WT Probe Displacement Assay IC50
[2] = KRAS G12D, read-out: KRAS^G12D Probe Displacement Assay IC50

Sequence of WT KRAS (P01116 1-188 isoform P01116-2): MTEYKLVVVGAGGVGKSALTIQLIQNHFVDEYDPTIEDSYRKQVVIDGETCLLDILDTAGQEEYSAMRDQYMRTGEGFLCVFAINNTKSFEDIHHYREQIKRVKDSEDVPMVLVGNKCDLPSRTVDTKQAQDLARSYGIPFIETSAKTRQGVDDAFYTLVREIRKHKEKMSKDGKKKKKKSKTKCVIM

SMILES	IC50 (WT KRAS; [1]) [nM]	IC50 (KRAS G12D; [2]) [nM]	IC50 (WT KRAS; KRAS^WT Probe Displacement Assay IC50, KRAS WT) [nM]	IC50 (KRAS G12D; KRAS^G12D Probe Displacement Assay IC50, KRAS G12D) [nM]
Cc1cc(N)cc(-c2nc3c4c(nc(OCC5(CN6C[C@@H]7C[C@@H]7[C@H]6CO)CC5)nc4c2F)N2C[C@H]4CC[C@H](N4)[C@H]2CCO3)c1C(F)(F)F [Example 97, ((1S,2S,5R)-3-((1-((((6aR,7S,10R)-2-(5-amino-3-methyl-2-(trifluoromethyl)phenyl)-1-fluoro-5,6,6a,7,8,9,10,11-octahydro-4-oxa-3,11a,12,14,15-pentaaza-7,10-methanocyclohepta [4,5]cycloocta,[1,2,3-de]naphthalen-13-yl)oxy)methyl)cyclopropyl)methyl)-3-azabicyclo [3.1.0]hexan-2-yl) methanol]	3 to 1000	< 0.3		
Cc1cc(N)cc(-c2nc3c4c(nc(OCC5(CN6C[C@H]7C[C@H]7[C@@H]6CO)CC5)nc4c2F)N2C[C@H]4CC[C@H](N4)[C@H]2CCO3)c1C(F)(F)F [Example 96, ((1R,2R,5S)-3-((1-((((6aR,7S,10R)-2-(5-amino-3-methyl-2-(trifluoromethyl)phenyl)-1-fluoro-5,6,6a,7,8,9,10,11-octahydro-4-oxa-3,11a,12,14,15-pentaaza-7,10-methanocyclohepta [4,5]cycloocta[1,2,3-de]naphthalen-13-yl)oxy)methyl)cyclopropyl)methyl)-3-azabicyclo [3.1.0]hexan-2-yl) methanol]	3 to 1000	< 0.3		
Cc1cc(N)cc(-c2nc3c4c(nc(O[C@@H](C)[C@@H]5CCCN5C)nc4c2F)N2C[C@H]4CC[C@H](N4)[C@H]2CCO3)c1C(F)(F)F [Example 37, 3-((6aR,7S,10R)-1-fluoro-13-((S)-1-((S)-1-methylpyrrolidin-2-yl)ethoxy)-5,6,6a,7,8,9,10,11-octahydro-4-oxa-3,11a,12,14,15-pentaaza-7,10-methanocyclohepta[4,5]cycloocta [1,2,3-de]naphthalen-2-yl)-5-methyl-4-(trifluoromethyl)aniline]	3 to 1000	< 0.3		
Cc1cc(N)cc(-c2nc3c4c(nc(OCC5(CN6CCC(OC(F)(F)F)CC6)CC5)nc4c2F)N2C[C@H]4CC[C@H](N4)[C@H]2CCO3)c1C(F)(F)F [Example 177, 3-((6aR,7S,10R)-1-fluoro-13-((1-((4-(trifluoromethoxy)piperidin-1-yl)methyl)cyclopropyl)methoxy)-5,6,6a,7,8,9,10,11-octahydro-4-oxa-3,11a,12,14,15-pentaaza-7,10-methanocyclohepta[4,5]cycloocta[1,2,3-de]naphthalen-2-yl)-5-methyl-4-(trifluoromethyl)aniline]	0.3 to 3	< 0.3		
CO[C@@H]1CN2C[C@H](F)C[C@]2(COc2nc3c4c(nc(-c5cc(N)cc(C)c5C(F)(F)F)c(F)c4n2)OCC[C@@H]2[C@@H]4CC[C@H](CN32)N4)C1 [Example 216, 3-((6aR,7S,10R)-1-fluoro-13-(((2R,6S,7aS)-2-fluoro-6-methoxytetrahydro-1H-pyrrolizin-7a(5H)-yl)methoxy)-5,6,6a,7,8,9,10,11-octahydro-4-oxa-3,11a,12,14,15-pentaaza-7,10-methanocyclohepta[4,5]cycloocta[1,2,3-de]naphthalen-2-yl)-5-methyl-4-(trifluoromethyl)aniline]	3 to 1000	< 0.3		
Cc1cc(N)cc(-c2nc3c4c(nc(O[C@@H](C)[C@@H]5CCCN5C5CCOCC5)nc4c2F)N2C[C@H]4CC[C@H](N4)[C@H]2CCO3)c1C(F)(F)F [Example 226, 3-((6aR,7S,10R)-1-fluoro-13-((S)-1-((S)-1-(tetrahydro-2H-pyran-4-yl)pyrrolidin-2-yl)ethoxy)-5,6,6a,7,8,9,10,11-octahydro-4-oxa-3,11a,12,14,15-pentaaza-7,10-methanocyclohepta[4,5]cycloocta[1,2,3-de]naphthalen-2-yl)-5-methyl-4-(trifluoromethyl)aniline]	3 to 1000	< 0.3		
Cc1cc(N)cc(-c2nc3c4c(nc(N5CC(C)(N(C)C)C5)nc4c2F)N2C[C@H]4CC[C@H](N4)[C@H]2CCO3)c1C(F)(F)F [Example 30]	3 to 1000	0.3 to 3		
[2H]C([2H])([2H])N1CCC(C(F)F)C(C)(C([2H])([2H])Oc2nc3c4c(nc(-c5cc(N)cc(C)c5C(F)(F)F)c(F)c4n2)OCC[C@@H]2[C@@H]4CC[C@H](CN32)N4)C1 (single isomer, unassigned) [Example 241]	0.3 to 3	< 0.3		
Cc1cc(N)cc(-c2nc3c4c(nc(OC[C@H]5COC[C@H]5N(C)C)nc4c2F)N2C[C@H]4CC[C@H](N4)[C@H]2CCO3)c1C(F)(F)F [Example 41, (3S,4R)-4-((((6aR,7S,10R)-2-(5-amino-3-methyl-2-(trifluoromethyl)phenyl)-1-fluoro-5,6,6a,7,8,9,10,11-octahydro-4-oxa-3,11a,12,14,15-pentaaza-7,10-methanocyclohepta[4,5]cycloocta [1,2,3-de]naphthalen-13-yl)oxy)methyl)-N,N-dimethyltetrahydrofuran-3-amine]	3 to 1000	0.3 to 3		
[2H]C([2H])([2H])N1CCC(C(F)F)C(C)(C([2H])([2H])Oc2nc3c4c(nc(-c5cc(N)cc(C)c5C(F)(F)F)c(F)c4n2)OCC[C@@H]2[C@@H]4CC[C@H](CN32)N4)C1 (single isomer, unassigned) [Example 240]	3 to 1000	0.3 to 3		
Cc1cc(N)cc(-c2nc3c4c(nc(O[C@@H](C)[C@@H]5CC6(CC6)CN5C)nc4c2F)N2C[C@H]4CC[C@H](N4)[C@H]2CCO3)c1C(F)(F)F [Example 143, 3-((6aR,7S,10R)-1-fluoro-13-((S)-1-((S)-5-methyl-5-azaspiro[2.4]heptan-6-yl)ethoxy)-5,6,6a,7,8,9,10,11-octahydro-4-oxa-3,11a,12,14,15-pentaaza[7,10]methanocyclohepta [4,5]cycloocta[1,2,3-de]naphthalen-2-yl)-5-methyl-4-(trifluoromethyl)aniline]	3 to 1000	< 0.3		
Cc1cc(N)cc(-c2nc3c4c(nc(OCC5(CN6CCC(F)(F)C6)CC5)nc4c2F)N2C[C@H]4CC[C@H](N4)[C@H]2CCO3)c1C(F)(F)F [Example 89, 3-((6aR,7S,10R)-13-((1-((3,3-difluoropyrrolidin-1-yl)methyl)cyclopropyl)methoxy)-1-fluoro-5,6,6a,7,8,9,10,11-octahydro-4-oxa-3,11a,12,14,15-pentaaza-7,10-methanocyclohepta [4,5]cycloocta [1,2,3-de]naphthalen-2-yl)-5-methyl-4-(trifluoromethyl) aniline]			3 to 1000	< 0.3
Cc1cc(N)cc(-c2nc3c4c(nc(OCC5(C)CC(F)CN(C6CCOCC6)C5)nc4c2F)N2C[C@H]4CC[C@H](N4)[C@H]2CCO3)c1C(F)(F)F (single isomer, unassigned) [Example 233]	3 to 1000	0.3 to 3		
Cc1cc(N)cc(-c2nc3c4c(nc(OCC5(CN6CC7CC7C6)CC5)nc4c2F)N2C[C@H]4CC[C@H](N4)[C@H]2CCO3)c1C(F)(F)F (stereo partly drawn) [Example 71, 3-((6aR,7S,10R)-13-((1-((3-azabicyclo[3.1.0]hexan-3-yl)methyl)cyclopropyl)methoxy)-1-fluoro-5,6,6a,7,8,9,10,11-octahydro-4-oxa-3,11a,12,14,15-pentaaza-7,10-methanocyclohepta[4,5]cycloocta [1,2,3-de]naphthalen-2-yl)-5-methyl-4-(trifluoromethyl)aniline]	3 to 1000	< 0.3		
Cc1cc(N)cc(-c2nc3c4c(nc(OCC5(C)CN(C)CCN5C)nc4c2F)N2C[C@H]4CC[C@H](N4)[C@H]2CCO3)c1C(F)(F)F (single isomer, unassigned) [Example 4]	3 to 1000	< 0.3		
Cc1cc(N)cc(-c2nc3c4c(nc(OCC5(CN6CCC(O)(C(F)(F)F)CC6)CC5)nc4c2F)N2C[C@H]4CC[C@H](N4)[C@H]2CCO3)c1C(F)(F)F [Example 114, 1-((1-((((6aR,7S,10R)-2-(5-amino-3-methyl-2-(trifluoromethyl)phenyl)-1-fluoro-5,6,6a,7,8,9,10,11-octahydro-4-oxa-3,11a,12,14,15-pentaaza-7,10-methanocyclohepta [4,5]cycloocta [1,2,3-de]naphthalen-13-yl)oxy)methyl)cyclopropyl)methyl)-4-(trifluoromethyl) piperidin-4-ol]	0.3 to 3	< 0.3		
Cc1cc(N)cc(-c2nc3c4c(nc(OCC5(CN6CCC7(CCOC7)C6)CC5)nc4c2F)N2C[C@H]4CC[C@H](N4)[C@H]2CCO3)c1C(F)(F)F (stereo partly drawn) [Example 188, 3-((6aR,7S,10R)-13-((1-((2-oxa-7-azaspiro[4.4]nonan-7-yl)methyl)cyclopropyl)methoxy)-1-fluoro-5,6,6a,7,8,9,10,11-octahydro-4-oxa-3,11a,12,14,15-pentaaza[7,10]methanocyclohepta[4,5]cycloocta[1,2,3-de]naphthalen-2-yl)-5-methyl-4-(trifluoromethyl)aniline]	< 0.3	< 0.3		
Cc1cc(N)cc(-c2nc3c4c(nc(OCC5(CN6CCCOCC6)CC5)nc4c2F)N2C[C@H]4CC[C@H](N4)[C@H]2CCO3)c1C(F)(F)F [Example 103, 3-((6aR,7S,10R)-13-- ((1-((1,4-oxazepan-4-yl)methyl)cyclopropyl)methoxy)-1-fluoro-5,6,6a,7,8,9,10,11-octahydro-4-oxa-3,11a, 12,14,15-pentaaza-7,10-methanocyclohepta [4,5]cycloocta [1,2,3-de]naphthalen-2-yl)-5-methyl-4-(trifluoromethyl)aniline]	3 to 1000	< 0.3		
Cc1cc(N)cc(-c2nc3c4c(nc(OCC5(CN6CCN(C7COC7)CC6)CC5)nc4c2F)N2C[C@H]4CC[C@H](N4)[C@H]2CCO3)c1C(F)(F)F [Example 191, 3-((6aR,7S,10R)-1-fluoro-13-((1-((4-(oxetan-3-yl)piperazin-1-yl)methyl)cyclopropyl)methoxy)-5,6,6a,7,8,9,10,11-octahydro-4-oxa-3,11a,12,14,15-pentaaza-7,10-methanocyclohepta[4,5]cycloocta[1,2,3-de]naphthalen-2-yl)-5-methyl-4-(trifluoromethyl)aniline]	3 to 1000	< 0.3		
